Measurements: paper PMC10184313, “Inhibition of Thiamine Diphosphate-Dependent Enzymes by Triazole-Based Thiamine Analogues” (ACS Medicinal Chemistry Letters, 2023)
Read-outs that look alike come from different tables or passages of the source.

Key:
P. falciparum strain 3D7 = assay: Anti-plasmodial activity assay (SYBR-Safe); type: cell-based, Plasmodium falciparum
Description: Next the effects of the thiamine/ThDP analogues on in vitro proliferation of the 3D7 strain of P. falciparum were determined. […] Parasite proliferation was measured by SYBR-Safe assay of parasite DNA.[11],[15]
(§1) Cell-based assays (Results)
(§2) Anti-plasmodial activity assay. This study used human malaria parasite P. falciparum strain 3D7 (chloroquine-sensitive) and the same strain expressing an extra copy of TPK with a GFP-tag ( PfTPK-GFP) generated as previously described. 9 The intraerythrocytic stage of the parasites were maintained essentially as previously described. 10 Compounds were tested at concentrations up to a highest final […]
(§3) were prepared in dimethyl sulfoxide (DMSO) followed by dilution in RPMI 1640 medium in the absence of thiamine or in the presence of 2.97 µM (or 297 µM) thiamine. The final concentration of DMSO that the parasites were exposed to never exceeded 0.05%. Two-fold serial dilutions were then performed, with each concentration tested in triplicate. The assay was performed as described 11 with some modifications. Experiments were initiated with parasites in the ring-stage, a parasitemia level of 0.5% and a haematocrit of 2%. Chloroquine (0.5 µM) was used as the positive control ( i.e. complete inhibition of parasite proliferation), and parasites maintained in the absence of any inhibitor represented 100% parasite proliferation. The final volume in each well was 200 µL. Plates were incubated at 37 °C, under an atmosphere of 96% nitrogen, 3% carbon dioxide and 1% oxygen. Parasite proliferation was measured by performing SYBR-Safe assay. 12 The concentration at which the compound suppresses […]
Excel and analysed by non-linear regression plot using GraphPad Prism. The data were averaged from three independent experiments. […]

in vitro = type: cell-based, human; conditions: human
Description: as §1, §2, §3
(§4) Excel and analysed by non-linear regression plot using GraphPad Prism. The data were averaged from three independent experiments.
(§5) Cytotoxicity assay. This study used HFF cells (human foreskin fibroblasts) as described 13 with some modifications. The HFF cells were seeded in 96-well plates at a density of about 13 x 10^4 cells/mL.
(§6) Plates were incubated at 37 °C in a humidified 5% carbon dioxide incubator for 96 h. A sample of the supernatant (150 µL) was then carefully aspirated from each well and discarded. The plates were then stored at -80 °C. SYBR- Safe assay was used. The plates were thawed, SYBR-Safe lysis solution (150 µL) was added to each well and mixed via pipetting to ensure the HFF cells were detached from the plate and lysed. The plates were then processed as described for the anti-plasmodial assay.

HFF cells = assay: in vitro; type: cell-based, human; conditions: IC50 (thiamine-free) vs HFF cytotoxicity
Description: as §1, §2, §3, §4, §5, §6

[1] = tested on: P. falciparum 3D7 transfected with an empty plasmid; assay: Anti-plasmodial activity, 3D7 transfected with an empty plasmid; type: cell-based; conditions: Plasmodium falciparum, 3D7, read-out: IC50 anti-plasmodial activity, empty plasmid
Description: as §1, §2
as §3, with “Plates were incubated at 37 °C, under an atmosphere of 96% nitrogen, 3% carbon dioxide and 1% oxygen.” left out, “assay.” for “assay. 12 The concentration at which the compound suppresses”
(§7) Excel and analysed by non-linear regression plot using GraphPad Prism. […]

[2] = tested on: P. falciparum 3D7 expressing PfTPK-GFP; assay: Anti-plasmodial activity, 3D7 expressing PfTPK-GFP; type: cell-based; conditions: Plasmodium falciparum, 3D7, read-out: IC50 anti-plasmodial activity, PfTPK-GFP
Description: as §1, §2
as §3, with “Plates were incubated at 37 °C, under an atmosphere of 96% nitrogen, 3% carbon dioxide and 1% oxygen.” left out, “assay.” for “assay. 12 The concentration at which the compound suppresses”
as §7

Z. mobilis PDC = molecular target: T1, Z. mobilis PDC (Zymomonas mobilis subsp. mobilis, UniProt P06672); assay: Z. mobilis PDC inhibitory activity assay (NADH consumption); type: biochemical; conditions: for Ki: Z. mobilis PDC, determined according to the KM for ThDP; for IC50: bacterial PDC (Zymomonas mobilis), [ThDP] 10 μM
T1 construct: made in house
T1 sequence (P06672 1-568): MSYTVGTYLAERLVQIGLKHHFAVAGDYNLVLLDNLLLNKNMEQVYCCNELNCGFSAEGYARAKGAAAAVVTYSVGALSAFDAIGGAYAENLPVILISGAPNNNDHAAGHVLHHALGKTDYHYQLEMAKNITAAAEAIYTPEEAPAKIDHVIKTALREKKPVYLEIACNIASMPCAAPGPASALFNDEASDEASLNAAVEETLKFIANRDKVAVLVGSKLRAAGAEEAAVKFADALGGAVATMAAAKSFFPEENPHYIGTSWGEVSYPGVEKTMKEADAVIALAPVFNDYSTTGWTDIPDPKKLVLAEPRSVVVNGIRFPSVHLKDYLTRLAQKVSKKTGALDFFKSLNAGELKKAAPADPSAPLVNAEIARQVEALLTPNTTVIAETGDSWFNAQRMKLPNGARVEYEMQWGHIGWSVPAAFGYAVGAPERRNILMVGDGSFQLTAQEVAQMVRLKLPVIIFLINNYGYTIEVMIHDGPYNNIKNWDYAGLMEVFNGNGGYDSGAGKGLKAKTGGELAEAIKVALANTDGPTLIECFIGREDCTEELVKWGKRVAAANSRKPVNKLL

[3] = Plasmodium falciparum, 3D7, 3D7, [Thiamine] = 2.97 μM, read-out: IC50 of Suppression of P. falciparum proliferation, [Thiamine] = 2.97 μM
[4] = Plasmodium falciparum, 3D7, 3D7, [Thiamine] = 297 μM, read-out: IC50 of Suppression of P. falciparum proliferation, [Thiamine] = 297 μM
[5] = Plasmodium falciparum, 3D7, 3D7, thiamine-free medium, read-out: IC50 of Suppression of P. falciparum proliferation, Thiamine-free

Row | SMILES | IC50 (P. falciparum strain 3D7; [3]) | IC50 (P. falciparum strain 3D7; [4]) | IC50 (P. falciparum strain 3D7; [5]) | IC50 at 96 h (in vitro) | Selectivity Index (HFF cells) | IC50 [1] | IC50 [2] | Ki (Z. mobilis PDC) | IC50 (Z. mobilis PDC) | fold more potent than 17c at inhibiting proliferation of the parasites (P. falciparum strain 3D7) | IC50 (P. falciparum strain 3D7; 3D7, thiamine-free medium, read-out: IC50 of Suppression of P. falciparum proliferation, Thiamine-free) | fold more active than 24c (anti-plasmodial) (P. falciparum strain 3D7; thiamine-free culture medium)
1 | Cc1ncc(Cn2cc(CCn3cc(-c4ccc(F)cc4)nn3)nn2)c(N)n1 [Compound 16a] | > 200 µM | > 200 µM | > 200 µM | – | – | – | – | – | – | – | – | –
2 | Cc1ncc(Cn2cc(CCCn3cc(-c4ccc(F)cc4)nn3)nn2)c(N)n1 [Compound 16b] | > 200 µM | > 200 µM | > 200 µM | > 200 µM | – | – | – | – | – | – | – | –
3 | Cc1ncc(Cn2cc(CCCCn3cc(-c4ccc(F)cc4)nn3)nn2)c(N)n1 [Compound 16c] | 70 ± 8 µM | 89 ± 19 µM | 67 ± 5 µM | 48 ± 5 µM | 0.7 | – | – | – | – | – | – | –
4 | COc1ccc(-c2cn(CCc3cn(Cc4cnc(C)nc4N)nn3)nn2)cc1 [Compound 17a] | 156 ± 13 µM | 169 ± 11 µM | 129 ± 9 µM | > 200 µM | – | – | – | – | – | – | – | –
5 | COc1ccc(-c2cn(CCCc3cn(Cc4cnc(C)nc4N)nn3)nn2)cc1 [Compound 17b] | 78 ± 8 µM | 82 ± 11 µM | 51 ± 3 µM | 90 ± 5 µM | 1.8 | – | – | – | – | – | – | –
6 | COc1ccc(-c2cn(CCCCc3cn(Cc4cnc(C)nc4N)nn3)nn2)cc1 [Compound 17c] | 62 ± 7 µM | 69 ± 9 µM | 44 ± 2 µM | 46 ± 7 µM | 1.1 | 38 ± 7 µM | 44 ± 9 µM | – | – | – | – | –
7 | Cc1ncc(Cn2cc(CCCC(=O)NO)nn2)c(N)n1 [Compound 24b] | 1.3 ± 0.2 µM | 1.4 ± 0.4 µM | 0.9 to 3 µM | 15 ± 3 µM | 16.7 | 1.7 ± 0.3 µM | 2 ± 0.6 µM | 0.68 µM | 20 ± 2 µM | ~50 fold | 0.9 ± 0.1 µM | 3 fold
8 | Cc1ncc(Cn2cc(CCCCC(=O)NO)nn2)c(N)n1 [Compound 24c] | 3.8 ± 2 µM | 4 ± 1.8 µM | – | 44 ± 4 µM | 14.7 | – | – | 0.89 µM | 25 ± 2 µM | – | – | –
